According to ChEMBL document CHEMBL3046898, “Synthesis and characterization of flurbiprofen hydrazide derivatives as potential anti-HCV, anticancer and antimicrobial agents” (2013):
The source made the active and inactive calls. No cut-off for these calls is given here.

Legend:
Proteus vulgaris [1] = assay: Antibacterial activity against Proteus vulgaris at 10 mg/ml after 24 hrs by disc diffusion method; type: functional, organism-based
[2] = system: Acinetobacter radioresistens; assay: Antibacterial activity against Acinetobacter radioresistens at 10 mg/ml after 24 hrs by disc diffusion method; type: functional, organism-based
Micrococcus luteus [3] = assay: Antibacterial activity against Micrococcus luteus at 6.25 to 200 ug/ml after 24 hrs by microwell dilution method; type: functional, organism-based
Photorhabdus luminescens [4] = assay: Antibacterial activity against Photorhabdus luminescens at 10 mg/ml after 24 hrs by disc diffusion method; type: functional, organism-based
Salmonella paratyphi [5] = assay: Antibacterial activity against Salmonella paratyphi at 6.25 to 200 ug/ml after 24 hrs by microwell dilution method; type: functional, organism-based; conditions: Salmonella enterica subsp. enterica serovar Paratyphi A
Salmonella paratyphi [6] = assay: Antibacterial activity against Salmonella paratyphi at 10 mg/ml after 24 hrs by disc diffusion method; type: functional, organism-based; conditions: Salmonella enterica subsp. enterica serovar Paratyphi A
Escherichia coli [7] = assay: Antibacterial activity against Escherichia coli at 10 mg/ml after 24 hrs by disc diffusion method; type: functional, organism-based
Escherichia coli [8] = assay: Antibacterial activity against Escherichia coli at 6.25 to 200 ug/ml after 24 hrs by microwell dilution method; type: functional, organism-based
Pichia membranifaciens = assay: Antifungal activity against Pichia membranifaciens at 10 mg/ml after 48 hrs by disc diffusion method; type: functional, organism-based
Candida parapsilosis = assay: Antifungal activity against Candida parapsilosis at 10 mg/ml after 48 hrs by disc diffusion method; type: functional, organism-based
Hepacivirus hominis = assay: Inhibition of HCV N-terminal His-tagged NS5B RNA dependent RNA polymerase expressed in Escherichia coli DH5alpha using poly rA/U12 as primer at 200 uM after 60 mins by liquid scintillation counting
Kluyveromyces marxianus = assay: Antifungal activity against Kluyveromyces marxianus at 10 mg/ml after 48 hrs by disc diffusion method; type: functional, organism-based
Nakaseomyces glabratus = assay: Antifungal activity against Candida glabrata at 10 mg/ml after 48 hrs by disc diffusion method; type: functional, organism-based
Candida albicans = assay: Antifungal activity against Candida albicans at 10 mg/ml after 48 hrs by disc diffusion method; type: functional, organism-based
Staphylococcus cohnii [9] = assay: Antibacterial activity against Staphylococcus cohnii at 6.25 to 200 ug/ml after 24 hrs by microwell dilution assay; type: functional, organism-based
Aspergillus = assay: Antifungal activity against Aspergillus at 10 mg/ml after 72 hrs by disc diffusion method; type: functional, organism-based
Staphylococcus aureus [10] = assay: Antibacterial activity against Staphylococcus aureus at 10 mg/ml after 24 hrs by disc diffusion method; type: functional
Micrococcus luteus [11] = assay: Antibacterial activity against Micrococcus luteus at 10 mg/ml after 24 hrs by disc diffusion method; type: functional, organism-based
Pseudomonas aeruginosa [12] = assay: Antibacterial activity against Pseudomonas aeruginosa at 10 mg/ml after 24 hrs by disc diffusion method; type: functional, organism-based
[13] = system: Acinetobacter radioresistens; assay: Antibacterial activity against Acinetobacter radioresistens at 6.25 to 200 ug/ml after 24 hrs by microwell dilution method; type: functional, organism-based
Candida tropicalis = assay: Antifungal activity against Candida tropicalis at 10 mg/ml after 48 hrs by disc diffusion method; type: functional, organism-based
Pseudomonas aeruginosa [14] = assay: Antibacterial activity against Pseudomonas aeruginosa at 6.25 to 200 ug/ml after 24 hrs by microwell dilution method; type: functional, organism-based
[15] = system: Schwanniomyces occidentalis; assay: Antifungal activity against Schwanniomyces occidentalis at 10 mg/ml after 48 hrs by disc diffusion method; type: functional, organism-based
Photorhabdus luminescens [16] = assay: Antibacterial activity against Photorhabdus luminescens at 6.25 to 200 ug/ml after 24 hrs by microwell dilution method; type: functional, organism-based
Klebsiella aerogenes [17] = assay: Antibacterial activity against Enterobacter aerogenes at 10 mg/ml after 24 hrs by disc diffusion method; type: functional, organism-based
Proteus vulgaris [18] = assay: Antibacterial activity against Proteus vulgaris at 6.25 to 200 ug/ml after 24 hrs by microwell dilution method; type: functional, organism-based
Micrococcus lylae [19] = assay: Antibacterial activity against Micrococcus lylae at 6.25 to 200 ug/ml after 24 hrs by microwell dilution method; type: functional, organism-based
Staphylococcus cohnii [20] = assay: Antibacterial activity against Staphylococcus cohnii at 10 mg/ml after 24 hrs by disc diffusion method; type: functional
Micrococcus lylae [21] = assay: Antibacterial activity against Micrococcus lylae at 10 mg/ml after 24 hrs by disc diffusion method; type: functional, organism-based
Klebsiella aerogenes [22] = assay: Antibacterial activity against Enterobacter aerogenes at 6.25 to 200 ug/ml after 24 hrs by microwell dilution method; type: functional, organism-based
Staphylococcus aureus [23] = assay: Antibacterial activity against Staphylococcus aureus at 6.25 to 200 ug/ml after 24 hrs by microwell dilution assay; type: functional, organism-based

SMILES | Activity (Proteus vulgaris [1]) | Activity [2] | Activity (Micrococcus luteus [3]) | Activity (Photorhabdus luminescens [4]) | Activity (Salmonella paratyphi [5]) | Activity (Salmonella paratyphi [6]) | Activity (Escherichia coli [7]) | Activity (Escherichia coli [8]) | Activity (Pichia membranifaciens) | Activity (Candida parapsilosis) | inhibition (Hepacivirus hominis) [%] | Activity (Kluyveromyces marxianus) | Activity (Nakaseomyces glabratus) | Activity (Candida albicans) | Activity (Staphylococcus cohnii [9]) | Activity (Aspergillus) | Activity (Staphylococcus aureus [10]) | Activity (Micrococcus luteus [11]) | Activity (Pseudomonas aeruginosa [12]) | Activity [13] | other results
CNC(=S)NNC(=O)C(C)c1ccc(-c2ccccc2)c(F)c1 (configuration not stated) | inactive | inactive | inactive | inactive | inactive | inactive | inactive | inactive | inactive | inactive | 8 | inactive | inactive | inactive | inactive | inactive | inactive | inactive | inactive | inactive | Activity (Candida tropicalis): inactive; Activity (Pseudomonas aeruginosa [14]): inactive; Activity [15]: inactive; Activity (Photorhabdus luminescens [16]): inactive; Activity (Klebsiella aerogenes [17]): inactive; Activity (Proteus vulgaris [18]): inactive; Activity (Micrococcus lylae [19]): inactive; Activity (Staphylococcus cohnii [20]): inactive; Activity (Micrococcus lylae [21]): inactive; Activity (Klebsiella aerogenes [22]): inactive; Activity (Staphylococcus aureus [23]): inactive
C=CCN1C(=O)CS/C1=N\NC(=O)C(C)c1ccc(-c2ccccc2)c(F)c1 (configuration not stated) | inactive | inactive | inactive | inactive | inactive | inactive | inactive | inactive | inactive | inactive | 8 | inactive | inactive | inactive | inactive | inactive | inactive | inactive | inactive | inactive | Activity (Candida tropicalis): inactive; Activity (Pseudomonas aeruginosa [14]): inactive; Activity [15]: inactive; Activity (Photorhabdus luminescens [16]): inactive; Activity (Klebsiella aerogenes [17]): inactive; Activity (Proteus vulgaris [18]): inactive; Activity (Micrococcus lylae [19]): inactive; Activity (Staphylococcus cohnii [20]): inactive; Activity (Micrococcus lylae [21]): inactive; Activity (Klebsiella aerogenes [22]): inactive; Activity (Staphylococcus aureus [23]): inactive
CC(C(=O)NN1C(=O)CSC1c1ccc(F)cc1)c1ccc(-c2ccccc2)c(F)c1 (configuration not stated) | inactive | inactive | inactive | inactive | inactive | inactive | inactive | inactive | inactive | inactive | 8 | inactive | inactive | inactive | inactive | inactive | inactive | inactive | inactive | inactive | Activity (Candida tropicalis): inactive; Activity (Pseudomonas aeruginosa [14]): inactive; Activity [15]: inactive; Activity (Photorhabdus luminescens [16]): inactive; Activity (Klebsiella aerogenes [17]): inactive; Activity (Proteus vulgaris [18]): inactive; Activity (Micrococcus lylae [19]): inactive; Activity (Staphylococcus cohnii [20]): inactive; Activity (Micrococcus lylae [21]): inactive; Activity (Klebsiella aerogenes [22]): inactive; Activity (Staphylococcus aureus [23]): inactive
CC(C(=O)N/N=C1\SCC(=O)N1C)c1ccc(-c2ccccc2)c(F)c1 (configuration not stated) | inactive | inactive | inactive | inactive | inactive | inactive | inactive | inactive | inactive | inactive | 8 | inactive | inactive | inactive | inactive | inactive | inactive | inactive | inactive | inactive | Activity (Candida tropicalis): inactive; Activity (Pseudomonas aeruginosa [14]): inactive; Activity [15]: inactive; Activity (Photorhabdus luminescens [16]): inactive; Activity (Klebsiella aerogenes [17]): inactive; Activity (Proteus vulgaris [18]): inactive; Activity (Micrococcus lylae [19]): inactive; Activity (Staphylococcus cohnii [20]): inactive; Activity (Micrococcus lylae [21]): inactive; Activity (Klebsiella aerogenes [22]): inactive; Activity (Staphylococcus aureus [23]): inactive
CC(C(=O)NNC(=S)Nc1ccccc1)c1ccc(-c2ccccc2)c(F)c1 (configuration not stated) | inactive | inactive | inactive | inactive | inactive | inactive | inactive | inactive | inactive | inactive | 8 | inactive | inactive | inactive | inactive | inactive | inactive | inactive | inactive | inactive | Activity (Candida tropicalis): inactive; Activity (Pseudomonas aeruginosa [14]): inactive; Activity [15]: inactive; Activity (Photorhabdus luminescens [16]): inactive; Activity (Klebsiella aerogenes [17]): inactive; Activity (Proteus vulgaris [18]): inactive; Activity (Micrococcus lylae [19]): inactive; Activity (Staphylococcus cohnii [20]): inactive; Activity (Micrococcus lylae [21]): inactive; Activity (Klebsiella aerogenes [22]): inactive; Activity (Staphylococcus aureus [23]): inactive
CC(C(=O)NN1C(=O)CSC1c1ccc([N+](=O)[O-])cc1)c1ccc(-c2ccccc2)c(F)c1 (configuration not stated) | inactive | inactive | inactive | inactive | inactive | inactive | inactive | inactive | inactive | inactive | 8 | inactive | inactive | inactive | inactive | inactive | inactive | inactive | inactive | inactive | Activity (Candida tropicalis): inactive; Activity (Pseudomonas aeruginosa [14]): inactive; Activity [15]: inactive; Activity (Photorhabdus luminescens [16]): inactive; Activity (Klebsiella aerogenes [17]): inactive; Activity (Proteus vulgaris [18]): inactive; Activity (Micrococcus lylae [19]): inactive; Activity (Staphylococcus cohnii [20]): inactive; Activity (Micrococcus lylae [21]): inactive; Activity (Klebsiella aerogenes [22]): inactive; Activity (Staphylococcus aureus [23]): inactive
CCCNC(=S)NNC(=O)C(C)c1ccc(-c2ccccc2)c(F)c1 (configuration not stated) | inactive | inactive | inactive | inactive | inactive | inactive | inactive | inactive | inactive | inactive | 8 | inactive | inactive | inactive | inactive | inactive | inactive | inactive | inactive | inactive | Activity (Candida tropicalis): inactive; Activity (Pseudomonas aeruginosa [14]): inactive; Activity [15]: inactive; Activity (Photorhabdus luminescens [16]): inactive; Activity (Klebsiella aerogenes [17]): inactive; Activity (Proteus vulgaris [18]): inactive; Activity (Micrococcus lylae [19]): inactive; Activity (Staphylococcus cohnii [20]): inactive; Activity (Micrococcus lylae [21]): inactive; Activity (Klebsiella aerogenes [22]): inactive; Activity (Staphylococcus aureus [23]): inactive
